Test results: ChEMBL document CHEMBL5380790 (J Med Chem, 2023)
≈ marks a conversion by molar mass, not a printed value. Calls of active or inactive are those of the source. The calls are words filed in the database; no cut-off is given here.

Assays:
[1] = test system: Mast/stem cell growth factor receptor Kit (Homo sapiens), P10721 [T670I]; assay: Inhibition of recombinant human KIT T670I mutant in exon 14 using polyGT and ATP as substrate preincubated for 20 mins followed by substrate addition and measured after 240 mins by FRET assay; settings: time 260.0 min
[2] = Volume of distribution at steady state in Cynomolgus monkey at 0.2 mg/kg, iv and measured upto 24 hrs; format: ADME, organism-based, Macaca fascicularis; settings: in vivo, read-out: Vdss
[3] = Dissociation constant, pKa of the compound; format: physicochemical
[4] = target: T1, Tyrosine-protein kinase Lck (Homo sapiens, UniProt P06239); assay: Inhibition of LCK (unknown origin) at 1 uM using 33P-ATP as substrate incubated for 120 mins by radiometric kinase assay
[5] = target: Receptor-type tyrosine-protein kinase FLT3 (Homo sapiens) (UniProt P36888); assay: Inhibition of FLT3 (unknown origin) at 1 uM using 33P-ATP as substrate incubated for 120 mins by radiometric kinase assay
[6] = Plasma clearance in Han Wistar rat at 0.2 mg/kg, iv and measured upto 24 hrs; format: ADME, organism-based
[7] = Half life in Beagle dog at 0.2 mg/kg, iv and measured upto 24 hrs; format: ADME, organism-based, Canis lupus familiaris; settings: in vivo
[8] = Oral bioavailability in Beagle dog at 20 mg/kg and measured upto 24 hrs; format: ADME, organism-based, Canis lupus familiaris; settings: in vivo
[9] = Oral bioavailability in Cynomolgus monkey at 5 mg/kg and measured upto 24 hrs; format: ADME, organism-based, Macaca fascicularis; settings: in vivo
[10] = target: T2, Macrophage colony-stimulating factor 1 receptor (Homo sapiens, UniProt P07333); assay: Inhibition of CSF1R (unknown origin) using 33P-ATP as substrate incubated for 120 mins by radiometric kinase assay
[11] = target: Platelet-derived growth factor receptor alpha (Homo sapiens, UniProt P16234); assay: Inhibition of PDGFRA (unknown origin) at 1 uM using 33P-ATP as substrate incubated for 120 mins by radiometric kinase assay
[12] = Half life in Han Wistar rat at 0.2 mg/kg, iv and measured upto 24 hrs; format: ADME, organism-based; settings: in vivo
[13] = Volume of distribution at steady state in CD-1 mouse at 0.2 mg/kg, iv and measured upto 24 hrs; format: ADME, organism-based; settings: in vivo, read-out: Vdss
[14] = target: T3, Mast/stem cell growth factor receptor Kit (Homo sapiens, UniProt P10721); format: cell-based; settings: gist430
[15] = Plasma clearance in Cynomolgus monkey at 0.2 mg/kg, iv and measured upto 24 hrs; format: ADME, organism-based, Macaca fascicularis
[16] = Half life in CD-1 mouse at 0.2 mg/kg, iv and measured upto 24 hrs; format: ADME, organism-based; settings: in vivo
[17] = target: T3, Mast/stem cell growth factor receptor Kit; assay: Inhibition of wild type KIT (unknown origin) using 33P-ATP as substrate incubated for 120 mins by radiometric kinase assay
Target sequence in this assay (P10721 whole entry): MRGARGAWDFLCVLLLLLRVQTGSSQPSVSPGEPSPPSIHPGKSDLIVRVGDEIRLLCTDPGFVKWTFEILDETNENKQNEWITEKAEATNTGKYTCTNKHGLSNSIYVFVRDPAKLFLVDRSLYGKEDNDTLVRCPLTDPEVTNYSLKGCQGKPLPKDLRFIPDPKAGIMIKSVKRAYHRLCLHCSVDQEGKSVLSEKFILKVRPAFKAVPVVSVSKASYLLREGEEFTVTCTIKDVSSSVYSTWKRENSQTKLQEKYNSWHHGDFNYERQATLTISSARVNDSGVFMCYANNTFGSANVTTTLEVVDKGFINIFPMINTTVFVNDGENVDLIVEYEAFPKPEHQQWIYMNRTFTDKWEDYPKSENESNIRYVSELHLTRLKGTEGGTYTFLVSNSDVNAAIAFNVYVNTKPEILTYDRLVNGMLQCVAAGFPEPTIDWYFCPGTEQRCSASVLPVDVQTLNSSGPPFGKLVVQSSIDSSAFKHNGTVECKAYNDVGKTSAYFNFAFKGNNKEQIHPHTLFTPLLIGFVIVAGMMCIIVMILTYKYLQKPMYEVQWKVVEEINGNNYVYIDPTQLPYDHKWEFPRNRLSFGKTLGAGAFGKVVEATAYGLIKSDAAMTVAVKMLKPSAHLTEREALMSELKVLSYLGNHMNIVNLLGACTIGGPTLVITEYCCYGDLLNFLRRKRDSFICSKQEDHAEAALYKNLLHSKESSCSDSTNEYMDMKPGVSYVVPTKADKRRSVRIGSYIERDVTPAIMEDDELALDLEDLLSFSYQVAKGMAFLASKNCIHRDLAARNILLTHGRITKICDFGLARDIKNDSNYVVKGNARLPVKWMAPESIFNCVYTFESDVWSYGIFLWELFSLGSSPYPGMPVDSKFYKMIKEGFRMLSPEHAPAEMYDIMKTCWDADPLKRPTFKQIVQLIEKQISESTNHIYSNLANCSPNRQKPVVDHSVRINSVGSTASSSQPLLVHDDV

[18] = Oral biovailability in Han Wistar rat at 30 mg/kg and measured upto 24 hrs; format: ADME, organism-based; settings: in vivo
[19] = target: T2, Macrophage colony-stimulating factor 1 receptor; assay: Inhibition of CSF1R (unknown origin) at 1 uM using 33P-ATP as substrate incubated for 120 mins by radiometric kinase assay
[20] = target: Mast/stem cell growth factor receptor Kit (Homo sapiens, UniProt P10721, DELTA560/V654A); format: cell-based, GIST-430/654
[21] = target: T3, Mast/stem cell growth factor receptor Kit; assay: Binding affinity to wild type human KIT in human HEK293 cells at 1 uM by NanoBRET assay; format: cell-based
Target sequence in this assay (P10721 whole entry): as above

[22] = test system: Mast/stem cell growth factor receptor Kit (Homo sapiens), P10721 [UNDEFINED MUTATION]; assay: Inhibition of recombinant human KIT (557 to 558 residues) activating deletion mutant in exon 11 using polyGT and ATP as substrate preincubated for 20 mins followed by substrate addition and measured after 240 mins by FRET assay; settings: time 260.0 min
[23] = Efflux ratio of apparent permeability from basolateral to apical side over apical to basolateral side in human Caco-2 cells at 1 uM and measured after 2 hrs by LC-MS/MS analysis; format: ADME, cell-based
[24] = Oral bioavailability in CD-1 mouse at 10 mg/kg and measured upto 24 hrs; format: ADME, organism-based; settings: in vivo
[25] = target: T1, Tyrosine-protein kinase Lck; assay: Inhibition of LCK (unknown origin) using 33P-ATP as substrate incubated for 120 mins by radiometric kinase assay
Target sequence in this assay (P06239 whole entry): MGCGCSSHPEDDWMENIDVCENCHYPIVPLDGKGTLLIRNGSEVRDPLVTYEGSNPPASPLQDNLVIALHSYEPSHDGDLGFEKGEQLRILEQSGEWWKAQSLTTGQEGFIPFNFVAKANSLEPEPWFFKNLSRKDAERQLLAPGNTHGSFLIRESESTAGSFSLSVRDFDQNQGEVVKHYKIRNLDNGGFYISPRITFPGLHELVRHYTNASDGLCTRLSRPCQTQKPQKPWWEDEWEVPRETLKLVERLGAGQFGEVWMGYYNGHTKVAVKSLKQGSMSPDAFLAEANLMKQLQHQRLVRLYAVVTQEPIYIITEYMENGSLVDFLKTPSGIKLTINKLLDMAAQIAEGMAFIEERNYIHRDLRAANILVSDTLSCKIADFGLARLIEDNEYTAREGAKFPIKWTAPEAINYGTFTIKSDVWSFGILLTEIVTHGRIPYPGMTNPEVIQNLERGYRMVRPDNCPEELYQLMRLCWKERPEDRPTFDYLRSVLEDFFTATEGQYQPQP

GIST-430/654 = format: functional, organism-based; settings: Homo sapiens, dose 10-35 mg/kg, route po, time 30.0 day
[26] = test system: Mast/stem cell growth factor receptor Kit (Homo sapiens), P10721 [V560G]; assay: Inhibition of recombinant human KIT V560G mutant in exon 11 using polyGT and ATP as substrate preincubated for 20 mins followed by substrate addition and measured after 240 mins by FRET assay; settings: time 260.0 min
[27] = target: Receptor-type tyrosine-protein kinase FLT3 (Homo sapiens) (UniProt P36888); assay: Binding affinity to human FLT3 in human HEK293 cells at 1 uM by NanoBRET assay; format: cell-based
[28] = Solubility of compound in FaSSIF at pH 6.5; format: physicochemical
[29] = target: hERG (KCNH2) potassium channel (Homo sapiens, UniProt Q12809); assay: Inhibition of human ERG potassium channel transfected in HEK293 cells at holding potential -80 mV at 10 uM and measured for 5 mins by whole cell patch clamp assay; format: toxicity, cell-based; settings: HEK293 cells transfected with hERG
[30] = test system: Mast/stem cell growth factor receptor Kit (Homo sapiens), P10721 [V559A]; assay: Inhibition of recombinant human KIT V559A mutant in exon 11 using polyGT and ATP as substrate preincubated for 20 mins followed by substrate addition and measured after 240 mins by FRET assay; settings: time 260.0 min
[31] = Apparent passive permeability of compound in human Caco-2 cells at 1 uM and measured after 2 hrs by LC-MS/MS analysis; format: ADME, cell-based

T2 sequence (P07333 whole entry): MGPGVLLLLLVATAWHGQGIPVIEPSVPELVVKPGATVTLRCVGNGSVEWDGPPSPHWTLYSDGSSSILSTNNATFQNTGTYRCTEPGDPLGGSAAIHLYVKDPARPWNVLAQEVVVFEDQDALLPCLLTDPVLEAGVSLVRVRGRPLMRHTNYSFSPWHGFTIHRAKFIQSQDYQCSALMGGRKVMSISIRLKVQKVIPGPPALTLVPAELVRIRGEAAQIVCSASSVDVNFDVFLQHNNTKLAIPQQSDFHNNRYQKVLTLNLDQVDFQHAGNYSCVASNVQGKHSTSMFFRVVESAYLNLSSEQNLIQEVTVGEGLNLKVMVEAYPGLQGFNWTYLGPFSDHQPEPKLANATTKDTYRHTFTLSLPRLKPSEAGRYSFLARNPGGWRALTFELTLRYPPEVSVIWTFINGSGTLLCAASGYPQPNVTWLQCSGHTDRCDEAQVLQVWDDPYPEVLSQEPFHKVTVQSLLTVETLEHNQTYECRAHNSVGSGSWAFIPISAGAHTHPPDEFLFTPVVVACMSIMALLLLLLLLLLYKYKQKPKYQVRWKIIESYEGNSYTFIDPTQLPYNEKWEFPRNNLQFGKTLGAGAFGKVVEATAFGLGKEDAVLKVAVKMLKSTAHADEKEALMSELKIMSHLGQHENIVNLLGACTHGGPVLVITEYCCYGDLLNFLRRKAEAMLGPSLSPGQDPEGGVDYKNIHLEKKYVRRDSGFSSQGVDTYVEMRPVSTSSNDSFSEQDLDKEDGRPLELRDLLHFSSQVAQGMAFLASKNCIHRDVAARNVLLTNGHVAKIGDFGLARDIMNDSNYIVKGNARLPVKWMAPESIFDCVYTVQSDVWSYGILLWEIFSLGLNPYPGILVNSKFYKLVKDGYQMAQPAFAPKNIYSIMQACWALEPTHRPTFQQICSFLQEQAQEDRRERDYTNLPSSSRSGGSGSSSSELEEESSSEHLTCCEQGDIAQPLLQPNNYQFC
Chain of Receptor-type tyrosine-protein kinase FLT3 (Homo sapiens) (P36888 whole entry): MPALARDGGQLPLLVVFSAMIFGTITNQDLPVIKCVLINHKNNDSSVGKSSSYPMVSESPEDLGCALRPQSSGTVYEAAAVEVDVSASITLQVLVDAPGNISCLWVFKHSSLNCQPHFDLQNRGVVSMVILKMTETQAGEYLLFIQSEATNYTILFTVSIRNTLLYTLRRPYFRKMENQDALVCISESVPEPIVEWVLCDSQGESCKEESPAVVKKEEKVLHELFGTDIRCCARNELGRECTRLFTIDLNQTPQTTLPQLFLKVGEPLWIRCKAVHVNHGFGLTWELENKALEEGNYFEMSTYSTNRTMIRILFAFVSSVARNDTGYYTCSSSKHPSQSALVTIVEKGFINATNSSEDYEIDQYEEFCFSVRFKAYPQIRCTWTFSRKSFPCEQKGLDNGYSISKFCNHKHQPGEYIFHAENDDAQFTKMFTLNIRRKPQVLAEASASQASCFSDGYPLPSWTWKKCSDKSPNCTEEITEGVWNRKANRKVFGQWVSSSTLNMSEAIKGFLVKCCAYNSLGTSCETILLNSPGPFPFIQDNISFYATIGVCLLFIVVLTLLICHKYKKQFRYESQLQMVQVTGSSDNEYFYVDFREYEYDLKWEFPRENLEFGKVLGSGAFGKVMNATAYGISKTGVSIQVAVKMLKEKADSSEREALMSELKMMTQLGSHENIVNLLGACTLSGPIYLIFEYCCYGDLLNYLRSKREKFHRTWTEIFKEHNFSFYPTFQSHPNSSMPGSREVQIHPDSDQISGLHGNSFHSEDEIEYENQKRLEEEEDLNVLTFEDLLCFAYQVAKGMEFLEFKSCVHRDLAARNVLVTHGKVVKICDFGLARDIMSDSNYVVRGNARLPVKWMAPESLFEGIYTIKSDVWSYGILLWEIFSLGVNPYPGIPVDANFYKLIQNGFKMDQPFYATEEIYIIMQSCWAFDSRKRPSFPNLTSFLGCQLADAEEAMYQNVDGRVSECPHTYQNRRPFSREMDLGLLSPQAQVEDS
Chain of Mast/stem cell growth factor receptor Kit (Homo sapiens), P10721 [V559A] (P10721 whole entry V559A): as the sequence (P10721 whole entry) above, with V559A counted along it
Chain of Mast/stem cell growth factor receptor Kit (Homo sapiens, UniProt P10721, DELTA560/V654A) (P10721 whole entry, looked up, stated change not applied): as the sequence (P10721 whole entry) above
Chain of Mast/stem cell growth factor receptor Kit (Homo sapiens), P10721 [UNDEFINED MUTATION] (P10721 whole entry, looked up, stated change not applied, the tested form may be a part): as the sequence (P10721 whole entry) above
Chain of Platelet-derived growth factor receptor alpha (P16234 whole entry): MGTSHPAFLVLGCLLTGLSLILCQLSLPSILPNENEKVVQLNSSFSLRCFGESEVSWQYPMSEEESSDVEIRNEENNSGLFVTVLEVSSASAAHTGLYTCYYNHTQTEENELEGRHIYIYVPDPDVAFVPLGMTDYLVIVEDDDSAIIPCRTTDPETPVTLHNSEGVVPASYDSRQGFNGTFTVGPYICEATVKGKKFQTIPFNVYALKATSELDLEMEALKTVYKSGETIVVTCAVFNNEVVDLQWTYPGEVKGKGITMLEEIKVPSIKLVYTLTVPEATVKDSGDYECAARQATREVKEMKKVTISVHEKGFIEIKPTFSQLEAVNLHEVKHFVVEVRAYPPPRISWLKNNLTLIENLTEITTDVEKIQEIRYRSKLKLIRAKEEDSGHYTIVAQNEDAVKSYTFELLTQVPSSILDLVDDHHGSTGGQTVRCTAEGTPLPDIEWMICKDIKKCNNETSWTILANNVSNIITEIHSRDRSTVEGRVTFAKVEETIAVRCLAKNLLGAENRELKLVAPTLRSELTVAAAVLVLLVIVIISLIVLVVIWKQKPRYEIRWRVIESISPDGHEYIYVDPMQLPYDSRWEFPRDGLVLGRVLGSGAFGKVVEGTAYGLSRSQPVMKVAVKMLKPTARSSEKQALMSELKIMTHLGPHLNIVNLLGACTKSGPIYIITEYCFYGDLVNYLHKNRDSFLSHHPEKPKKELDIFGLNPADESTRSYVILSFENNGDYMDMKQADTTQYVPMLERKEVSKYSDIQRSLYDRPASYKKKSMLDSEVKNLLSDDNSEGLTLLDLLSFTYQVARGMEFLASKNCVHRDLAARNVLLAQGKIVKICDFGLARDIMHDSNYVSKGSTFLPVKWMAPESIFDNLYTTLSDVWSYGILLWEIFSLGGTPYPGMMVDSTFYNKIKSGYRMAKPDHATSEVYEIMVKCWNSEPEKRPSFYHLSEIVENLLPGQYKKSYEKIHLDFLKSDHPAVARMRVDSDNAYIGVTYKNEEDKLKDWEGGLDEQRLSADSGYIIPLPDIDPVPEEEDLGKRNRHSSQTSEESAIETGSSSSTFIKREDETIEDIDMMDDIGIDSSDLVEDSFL
Chain of Mast/stem cell growth factor receptor Kit (Homo sapiens), P10721 [V560G] (P10721 whole entry V560G): as the sequence (P10721 whole entry) above, with V560G counted along it
Chain of Mast/stem cell growth factor receptor Kit (Homo sapiens), P10721 [T670I] (P10721 whole entry T670I): as the sequence (P10721 whole entry) above, with T670I counted along it

SMILES: Cn1cc(-c2ccc(CNc3cc(-c4cnc5cc(OCCCN6CCCC6)ccn45)ncn3)cc2)cn1 [IDRX-42]
- inhibition [1]: inactive
- Vd [2]: 12.4 L/kg
- pKa [3]: 9.7
- inhibition [4]: > 80%
- inhibition [5]: > 80%
- clearance [6]: 36.7 mL/min/kg
- half-life [7]: 9.6 h
- bioavailability [8]: 80%
- bioavailability [9]: 31%
- IC50 [10]: 5.5 nM
- inhibition [11]: > 80%
- half-life [12]: 6.8 h
- Vd [13]: 11 L/kg
- IC50 [14]: 4 nM
- clearance [15]: 36.7 mL/min/kg
- half-life [16]: 6.9 h
- IC50 [17]: 44 nM
- bioavailability [18]: 63%
- inhibition [19]: > 80%
- IC50 [20]: 48 nM
- Activity [21]: 65%
- inhibition [22]: Active
- efflux ratio at 2 h, 1 µM [23]: 14
- bioavailability [24]: 46%
- IC50 [25]: 141 nM
- inhibition (GIST-430/654): Dose-Dependent Effect
- inhibition [26]: Active
- Activity [27]: 45%
- solubility [28]: 374 µg/mL (≈ 735 µM)
- inhibition at 5 min, 10 µM [29]: -86%
- inhibition [30]: Active
- Papp at 2 h, 1 µM [31]: 5.7 ×10⁻⁶ cm/s
